Test results published in US10940188B2, “Compounds and methods for treatment and prevention of Flavivirus infection” (priority 2016, dated 2021).
Structures can show the parent of a compound that is named as a salt. Where two headings read alike, the source gives them in different places.

How the values were obtained:
HEK293 cells = assay: Toxicity IC50 (cell-killing activity) of the NS1 TR-FRET screen; type: cell-based, human; settings: cell-killing activity; for IC50: read-out: Tox IC50
ZIKV MR766 NS1 = assay: microbe, parasite or virus in culture; type: cell-based, Zika virus; settings: read-out: NS1-IC50
Method: A one-step NS1 TR-FRET (Time-resolved fluorescence resonance energy transfer) assay for a screen of anti-ZIKV compounds was carried out. Human embryonic kidney cell line HEK293 cells were seeded into 384-well plates and infected with ZIKV MR766 at a MOI of 0.5 for 2 days. The FRET assay was performed with two clones of anti-NS1 antibody (ab) differentially labelled with donor and acceptor fluorophores.

[1] = HEK293 cells, ZIKV MR766, MOI 0.5, 2 days, virus-inhibiting activity

CC(C)C[C@H](NC(=O)CNC(=O)c1cc(Cl)ccc1Cl)B1OC(=O)C(CC(=O)O)(CC(=O)O)O1 [Ixazomib citrate]
IC50 (HEK293 cells; Homo sapiens, HEK293): 1580 nM | IC50 (ZIKV MR766 NS1; Zika virus, HEK293, 48 h): 196 nM

O=C(Cc1ccc(-c2ccc(OCCN3CCOCC3)cc2)cn1)NCc1ccccc1 [KX-01]
IC50 (HEK293 cells): 19300 nM | IC50 (ZIKV MR766 NS1; [1]): 481 nM

CCC[C@H](Nc1nc(-c2ccc(NC(=O)NCC)c(OC)c2)ncc1C)c1cccnc1 [Lexibulin hydrochloride]
Tox IC50 (HEK293 cells): No | IC50 (ZIKV MR766 NS1; Zika virus, HEK293, 48 h): 171 nM

CC(C)C[C@H](NC(=O)CNC(=O)c1cc(Cl)ccc1Cl)B(O)O [MLN-2238]
IC50 (HEK293 cells; Homo sapiens, HEK293): 2130 nM | IC50 (ZIKV MR766 NS1; Zika virus, HEK293, 48 h): 234 nM

O=C1c2c(O)ccc(O)c2C(=O)c2c(NCCNCCO)ccc(NCCNCCO)c21 [Mitoxantrone]
IC50 (HEK293 cells; Homo sapiens, HEK293): 50000 nM | IC50 (ZIKV MR766 NS1; Zika virus, HEK293, 48 h): 232 nM

COc1c(C)c2c(c(O)c1C/C=C(\C)CCC(=O)OCCN1CCOCC1)C(=O)OC2 [Mycophenolate mofetil]
Tox IC50 (HEK293 cells): No | IC50 (ZIKV MR766 NS1; Zika virus, HEK293, 48 h): 529 nM

COc1c(C)c2c(c(O)c1C/C=C(\C)CCC(=O)O)C(=O)OC2 [Mycophenolic acid]
Tox IC50 (HEK293 cells): No | IC50 (ZIKV MR766 NS1; Zika virus, HEK293, 48 h): 539 nM

NCC(=O)Nc1ccc(-n2nc(C(F)(F)F)cc2-c2ccc3c(ccc4ccccc43)c2)cc1 [OSU-03012]
IC50 (HEK293 cells; Homo sapiens, HEK293): 10000 nM | IC50 (ZIKV MR766 NS1; Zika virus, HEK293, 48 h): 992 nM

CC(=O)O[C@H]1C(=O)[C@@]2(C)[C@H]([C@H](OC(=O)c3ccccc3)[C@]3(O)C[C@H](OC(=O)[C@H](O)[C@@H](NC(=O)c4ccccc4)c4ccccc4)C(C)=C1C3(C)C)[C@]1(OC(C)=O)CO[C@@H]1C[C@@H]2O [PACLITAXEL]
Tox IC50 (HEK293 cells): No | IC50 (ZIKV MR766 NS1; Zika virus, HEK293, 48 h): 89.4 nM

C[C@]1(CO)CN(c2cc(C(=O)Nc3ccc4c(c3)-c3c(c(C(N)=O)nn3-c3ccc(F)cc3)CC4)c(Cl)cn2)C[C@@]1(C)CO [PF-184]
Tox IC50 (HEK293 cells): No | IC50 (ZIKV MR766 NS1; [1]): 388 nM

Cn1cc(-c2[nH]c3cc(NC(=O)[C@H](N)C4CCCCC4)cc4c3c2C=NNC4=O)cn1 [PF-477736]
Tox IC50 (HEK293 cells): No | IC50 (ZIKV MR766 NS1; [1]): 489 nM

Cc1ccc([N+](=O)[O-])cc1S(=O)(=O)N(C)/N=C/c1cnc2ccc(Br)cn12 [PIK-75]
Tox IC50 (HEK293 cells): No | IC50 (ZIKV MR766 NS1; [1]): 616 nM

CC(C)c1nn(-c2c(Cl)cccc2Cl)c2nc(Cc3ccc(OCCO)cc3)[nH]c(=O)c12 [RGB-286147]
Tox IC50 (HEK293 cells): No | IC50 (ZIKV MR766 NS1; [1]): 268 nM

CCc1c2c(nc3ccc(O)cc13)-c1cc3c(c(=O)n1C2)COC(=O)[C@]3(O)CC [SN-38]
Tox IC50 (HEK293 cells): No | IC50 (ZIKV MR766 NS1; [1]): 11.3 nM

C/C=C(/C)C(=O)O[C@H]1C(C)=C2[C@H]([C@@H]1OC(=O)CCCCCCC)[C@@](C)(OC(C)=O)C[C@H](OC(=O)CCC)[C@@]1(O)[C@H]2OC(=O)[C@@]1(C)O [Thapsigargin]
IC50 (HEK293 cells; Homo sapiens, HEK293): 40000 nM | IC50 (ZIKV MR766 NS1; Zika virus, HEK293, 48 h): 171 nM

CC[C@@]1(O)C(=O)OCc2c1cc1n(c2=O)Cc2cc3c(CN(C)C)c(O)ccc3nc2-1 [Topotecan hydrochloride]
Tox IC50 (HEK293 cells): No | IC50 (ZIKV MR766 NS1; Zika virus, HEK293, 48 h): 51.4 nM

Nc1ccc(-c2ccc3ncc4ccc(=O)n(-c5cccc(C(F)(F)F)c5)c4c3c2)cn1 [Torin-2]
Tox IC50 (HEK293 cells): No | IC50 (ZIKV MR766 NS1; [1]): 724 nM

CC(C)[C@]12O[C@H]1[C@@H]1O[C@]13[C@]1(O[C@H]1C[C@H]1C4=C(CC[C@@]13C)C(=O)OC4)[C@@H]2O [Triptolide]
Tox IC50 (HEK293 cells): No | IC50 (ZIKV MR766 NS1; Zika virus, HEK293, 48 h): 465 nM

CC[C@]1(O)C[C@H]2CN(CCc3c([nH]c4ccccc34)[C@@](C(=O)OC)(c3cc4c(cc3OC)N(C=O)[C@H]3[C@@](O)(C(=O)OC)[C@H](OC(C)=O)[C@]5(CC)C=CCN6CC[C@]43[C@@H]65)C2)C1 [Vincristine sulfate]
Tox IC50 (HEK293 cells): No | IC50 (ZIKV MR766 NS1; Zika virus, HEK293, 48 h): 156 nM

CC[C@]1(O)C[C@@H]2CN(CCc3c([nH]c4ccccc34)[C@@](C(=O)OC)(c3cc4c(cc3OC)N(C)[C@H]3[C@@](O)(C(N)=O)[C@H](O)[C@]5(CC)C=CCN6CC[C@]43[C@@H]65)C2)C1 [Vindesine sulfate salt]
Tox IC50 (HEK293 cells): No | IC50 (ZIKV MR766 NS1; Zika virus, HEK293, 48 h): 664 nM

CCC1=C[C@@H]2CN(C1)Cc1c([nH]c3ccccc13)[C@@](C(=O)OC)(c1cc3c(cc1OC)N(C)[C@H]1[C@@](O)(C(=O)OC)[C@H](OC(C)=O)[C@]4(CC)C=CCN5CC[C@]31[C@@H]54)C2 [Vinorelbine tartrate]
Tox IC50 (HEK293 cells): No | IC50 (ZIKV MR766 NS1; Zika virus, HEK293, 48 h): 270 nM

CC[C@@H]1C(=O)N(C)c2cnc(Nc3ccc(C(=O)N[C@H]4CC[C@H](N5CCN(CC6CC6)CC5)CC4)cc3OC)nc2N1C(C)C [Volasertib]
Tox IC50 (HEK293 cells): No | IC50 (ZIKV MR766 NS1; Zika virus, HEK293, 48 h): 64.8 nM
